These are literature values, as cited in patent publication US20040013710A1, “Hydrolyzable tannin extracts from plants effective at inhibiting bacterial adherence to surfaces” (priority 2003, published 2004).

The test system of this data set is type 1 E. coli.

On to `O=C(CO)[C@@H](O)[C@H](O)[C@H](O)CO` [fructose], for which the “inhibition of Type I adherence” value is “inhibited”.
